For 15 compounds, EC50 results are on record in US6908935B2, “Calcium receptor modulating agents” (Amgen Inc., priority 2002, dated 2005).

This test concerns the target T1, human parathyroid cell Ca^2+ receptor (hPCaR) (Homo sapiens, UniProt P41180).
T1 construct: expressed in transfected cells
T1 sequence (P41180 20-1078): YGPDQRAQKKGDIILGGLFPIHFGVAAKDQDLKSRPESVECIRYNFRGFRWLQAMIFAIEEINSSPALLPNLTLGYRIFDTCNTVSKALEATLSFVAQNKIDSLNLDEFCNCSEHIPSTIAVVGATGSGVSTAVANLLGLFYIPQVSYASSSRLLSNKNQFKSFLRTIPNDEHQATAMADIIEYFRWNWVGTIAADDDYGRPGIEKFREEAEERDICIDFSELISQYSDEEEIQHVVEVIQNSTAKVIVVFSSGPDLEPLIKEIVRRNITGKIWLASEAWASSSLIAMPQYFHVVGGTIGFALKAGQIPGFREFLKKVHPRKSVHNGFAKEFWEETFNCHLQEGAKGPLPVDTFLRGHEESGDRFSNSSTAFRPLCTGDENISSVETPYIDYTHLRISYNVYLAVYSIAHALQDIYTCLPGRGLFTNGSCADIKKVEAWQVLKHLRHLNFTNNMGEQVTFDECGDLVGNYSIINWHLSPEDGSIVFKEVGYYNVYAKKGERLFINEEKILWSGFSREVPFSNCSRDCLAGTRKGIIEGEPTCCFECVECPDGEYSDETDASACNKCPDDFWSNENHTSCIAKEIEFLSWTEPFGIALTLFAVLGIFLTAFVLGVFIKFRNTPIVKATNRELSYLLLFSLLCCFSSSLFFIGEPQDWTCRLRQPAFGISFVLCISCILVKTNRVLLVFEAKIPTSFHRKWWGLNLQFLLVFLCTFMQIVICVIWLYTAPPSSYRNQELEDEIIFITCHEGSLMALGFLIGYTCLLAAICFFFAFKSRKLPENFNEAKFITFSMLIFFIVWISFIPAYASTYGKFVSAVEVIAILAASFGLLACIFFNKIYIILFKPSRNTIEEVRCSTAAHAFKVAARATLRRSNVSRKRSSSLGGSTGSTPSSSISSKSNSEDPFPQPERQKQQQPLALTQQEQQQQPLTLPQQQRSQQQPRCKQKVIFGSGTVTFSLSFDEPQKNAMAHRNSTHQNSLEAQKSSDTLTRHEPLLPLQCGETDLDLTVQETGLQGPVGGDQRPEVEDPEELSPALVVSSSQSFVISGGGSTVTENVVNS
In words: [Ca2+]i measurement with fluo-3 in HEK 293 4.0-7 cells stably transfected with hPCaR. The test is classed as cell-based. To be noted: fluo-3 fluorescence (485/530 nm), effect on [Ca^2+]i. The gist of the method: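 Cytosolic [Ca2+] was read as fluo-3 fluorescence (ex 485/em 530 nm) after compound addition to washed cells. Cells were hPCaR-transfected HEK 293 clone 7, dye-loaded 30 min at 37 °C with 2 μM fluo-3 acetoxymethyl ester in HEPES-buffered saline pH 7.45 containing 1 mM CaCl2 and 0.5% BSA.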

Broadly, the EC50 is the concentration that produces a half-maximal response. Read a low EC50 as higher potency in that assay. With `COc1ccc(CN[C@H](C)c2cccc3ccccc23)cc1-c1ccc(C)nc1` [(1R)-N-((4-(methyloxy)-3-(6-methyl-3-pyridinyl)phenyl)methyl)-1-(1-naphthalenyl)ethanamine], the EC50 was at most 10 µM.

Consider `COc1ccc(-c2cc(CN[C@H](C)c3ccccc3)ccc2NS(C)(=O)=O)cc1` [N-(4′-(methyloxy)-5-((((1R)-1-phenylethyl)amino)methyl)-1,1′-biphenyl-2-yl)methanesulfonamide], for which the EC50 was at most 10 µM.

As for `COc1cccc([C@@H](C)NCc2ccc(OC)c(-c3ccc(OCC(F)(F)F)nc3)c2)c1` [(1R)-1-(3-(methyloxy)phenyl)-N-((4-(methyloxy)-3-(6-((2,2,2-trifluoroethyl)oxy)-3-pyridinyl)phenyl)methyl)ethanamine], the EC50 is at most 10 µM.

The compound `COc1cccc([C@@H](C)NCc2ccc(OC)c(-c3cnc(OCC(F)(F)F)nc3)c2)c1` [(1R)-1-(3-(methyloxy)phenyl)-N-((4-(methyloxy)-3-(2-((2,2,2-trifluoroethyl)oxy)-5-pyrimidinyl)phenyl)methyl)ethanamine] returned an EC50 of at most 10 µM.

In turn, `CCOC(=O)c1ccc(-c2cc(CN[C@H](C)c3cccc(OC)c3)ccc2OC)cc1` [ethyl 2′-(methyloxy)-5′-((((1R)-1-(3-(methyloxy)phenyl)ethyl)amino)methyl)-1,1′-biphenyl-4-carboxylate] gave an EC50 of at most 10 µM.

In turn, `CCOC(=O)N1CCC(c2cc(CN[C@H](C)c3cccc(OC)c3)ccc2OC)CC1` [ethyl 4-(2-(methyloxy)-5-((((1R)-1-(3-(methyloxy)phenyl)ethyl)amino)methyl)phenyl)-1-piperidinecarboxylate] registered an EC50 of at most 10 µM.

`COc1ccc(CN[C@H](C)c2ccccc2)cc1-c1ccc(S(C)(=O)=O)cc1` [(1R)-N-((6-(methyloxy)-4′-(methylsulfonyl)-1,1′-biphenyl-3-yl)methyl)-1-phenylethanamine] yielded an EC50 of at most 10 µM.

As for `COc1ccc(CN[C@H](C)c2cccc3ccccc23)cc1-c1ccc(OCC(F)(F)F)nc1` [(1R)-N-((4-(methyloxy)-3-(6-((2,2,2-trifluoroethyl)oxy)-3-pyridinyl)phenyl)methyl)-1-(1-naphthalenyl)ethanamine], the EC50 was at most 10 µM.

In turn, `COCCOc1cccc([C@@H](C)NCc2ccc(OC)c(-c3ccc(C(F)(F)F)cc3)c2)c1` [(1R)-1-(3-((2-(methyloxy)ethyl)oxy)phenyl)-N-((6-(methyloxy)-4′-(trifluoromethyl)-1,1′-biphenyl-3-yl)methyl)ethanamine] showed an EC50 of at most 10 µM.

`COc1cccc([C@@H](C)NCc2ccc(OC)c(-c3ccc4ccccc4c3)c2)c1` [(1R)-N-((4-(methyloxy)-3-(2-naphthalenyl)phenyl)methyl)-1-(3-(methyloxy)phenyl)ethanamine] came in with an EC50 of at most 10 µM.

The compound `COc1ccc(CNC(C)c2cccc(N(C)C)c2)cc1-c1ccc(C(F)(F)F)cc1` (stereo not drawn) returned an EC50 of at most 10 µM.

In turn, `COc1cccc([C@@H](C)NCc2ccc(OC)c(-c3cncnc3)c2)c1` [(1R)-1-(3-(methyloxy)phenyl)-N-((4-(methyloxy)-3-(5-pyrimidinyl)phenyl)methyl)ethanamine] had an EC50 of at most 10 µM.

For the compound `COc1ccc(CN[C@H](C)c2cccc3ccccc23)cc1-c1nnc(C(F)(F)F)o1` [(1R)-N-((4-(methyloxy)-3-(5-(trifluoromethyl)-1,3,4-oxadiazol-2-yl)phenyl)methyl)-1-(1-naphthalenyl)ethanamine], the EC50 was at most 10 µM.

`Cc1ccc([C@@H](C)NCc2cccc(-c3ncnc4c3ncn4C)c2)cc1` [Example 241, (1R)-1-(4-methylphenyl)-N-((3-(9-methyl-9H-purin-6-yl)phenyl)methyl)ethanamine] had an EC50 of at most 10 µM.

The compound `COc1ccc(CN[C@H](C)c2cccc3ccccc23)cc1-c1ccc(C(F)(F)F)nc1` had an EC50 of at most 10 µM.
